# Source: patent US6858591B2, “Antibiotic AA 896 analogs” (Wyeth Holdings Corporation, priority 2001, dated 2005)
# Like-named read-outs stand apart in the source and are kept apart here.
# Tests used:
# Experiment in all cases: In vitro MIC, broth dilution
# Type in all cases: cell-based
# E. coli GC 4560 = details: Escherichia coli, GC4560
# E. coli GC 4559 = details: Escherichia coli, GC4559
# M. morganii GC 4531 = details: Morganella morganii, GC4531
# E. cloacae GC 3783 = details: Enterobacter cloacae, GC3783
# P. aeruginosa GC 4532 = details: Pseudomonas aeruginosa, GC4532
# P. aeruginosa GC 2214 = details: Pseudomonas aeruginosa, GC2214
# S. marcescens GC 4077 = details: Serratia marcescens, GC4077
# K. pneumoniae GC 4534 = details: Klebsiella pneumoniae, GC4534
# E. coli GC 2203 = details: Escherichia coli, GC2203
# S. aureus GC 1131 = details: Staphylococcus aureus, GC1131
# Summary of the method: (§1)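 MIC read as the lowest antibiotic level preventing growth after 18 hours at 35° C., ambient air. Tested by NCCLS broth dilution in Mueller-Hinton II across 64-0.06 μg/ml with 5×10^5 CFU/ml inoculum.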
# CNS GC 4537 = system: CNS GC 4537
# Summary of the method: as §1
# E. faecalis GC 842 = details: Enterococcus faecalis, GC842
# Summary of the method: as §1
# S. aureus GC 4536 = details: Staphylococcus aureus, GC4536
# Summary of the method: as §1
# S. aureus GC 2216 = details: Staphylococcus aureus, GC2216
# Summary of the method: as §1
# CNS GC 4538 = system: CNS GC 4538
# Summary of the method: as §1
# CNS GC 4547 = system: CNS GC 4547
# Summary of the method: as §1
# E. faecalis GC 2242 = details: Enterococcus faecalis, GC2242
# Summary of the method: as §1
# E. faecalis GC 4555 = details: Enterococcus faecalis, GC4555
# Summary of the method: as §1
# C. albicans GC 3066 = details: Candida albicans, GC3066
# E. coli GC 3226 = details: Escherichia coli, GC3226
# [1] = M. morganii GC 4531, read-out: MIC
# [2] = E. cloacae GC 3783, read-out: MIC
# [3] = P. aeruginosa GC 4532, read-out: MIC
# [4] = P. aeruginosa GC 2214, read-out: MIC
# [5] = S. marcescens GC 4077, read-out: MIC
# [6] = K. pneumoniae GC 4534, read-out: MIC
# [7] = S. aureus GC 1131, read-out: MIC
# [8] = E. faecalis GC 842, read-out: MIC
# [9] = S. aureus GC 4536, read-out: MIC
# [10] = S. aureus GC 2216, read-out: MIC
# [11] = E. faecalis GC 2242, read-out: MIC
# [12] = E. faecalis GC 4555, read-out: MIC
# [13] = C. albicans GC 3066, read-out: MIC
Structure (SMILES),MIC (E. coli GC 4560) [µg/mL],MIC (E. coli GC 4559) [µg/mL],MIC (M. morganii GC 4531) [µg/mL],MIC (E. cloacae GC 3783) [µg/mL],MIC (P. aeruginosa GC 4532) [µg/mL],MIC (P. aeruginosa GC 2214) [µg/mL],MIC (S. marcescens GC 4077) [µg/mL],MIC (K. pneumoniae GC 4534) [µg/mL],MIC (E. coli GC 2203) [µg/mL],MIC (S. aureus GC 1131) [µg/mL],MIC (CNS GC 4537) [µg/mL],MIC (E. faecalis GC 842) [µg/mL],MIC (S. aureus GC 4536) [µg/mL],MIC (S. aureus GC 2216) [µg/mL],MIC (CNS GC 4538) [µg/mL],MIC (CNS GC 4547) [µg/mL],MIC (E. faecalis GC 2242) [µg/mL],MIC (E. faecalis GC 4555) [µg/mL],MIC (C. albicans GC 3066) [µg/mL],MIC (E. coli GC 3226) [µg/mL],other results
"COc1ccc(Cn2c(=O)ccn([C@@H]3OC([C@H](O)[C@H](NCCCNC(=O)[C@H](CC(C)C)NC(=O)[C@H](CCCNC(=N)N[N+](=O)O)NC(=O)N[C@H](C(=O)OCc4ccccc4)C(C)C)C(=O)OC(C)(C)C)[C@@H](O[Si](C)(C)C(C)(C)C)[C@H]3O[Si](C)(C)C(C)(C)C)c2=O)cc1 (stereo partly drawn) [Example 28, 1-Benzyl 17-(tert-butyl)(2S,6S,9S,16S)-16-[(R)-[(3R,4R,5R)-3,4-bis{[tert-butyl(dimethyl)silyl]oxy}-5-(3-(4-methoxybenzyl)-2,4-dioxo-3,4-dihydro-1(2H)-pyrimidinyl)tetrahydro-2-furanyl](hydroxy)methyl]-6-(3-{[(2,2-dioxido-2lambda˜1˜-diazanyl)(imino)methyl]amino}propyl)-9-isobutyl-2-isopropyl-4,7,10-trioxo-3,5,8,11,15-pentaazaheptadecane-1,17-dioate]",> 128,> 128,> 128,> 128,> 128,> 128,> 128,> 128,> 128,> 128,> 128,> 128,> 128,> 128,> 128,> 128,> 128,> 128,> 128,> 128,–
"COc1ccc(Cn2c(=O)ccn([C@@H]3OC([C@H](O)[C@H](NCCCNC(=O)[C@H](CCCCNC(=O)OCc4ccccc4)NC(=O)OCc4ccccc4)C(=O)OC(C)(C)C)[C@@H](O[Si](C)(C)C(C)(C)C)[C@H]3O[Si](C)(C)C(C)(C)C)c2=O)cc1 (stereo partly drawn) [Example 18, tert-Butyl (9S,16S)-9-{[(benzyloxy)carbonyl]amino}-16-[(R)-[(3R,4R,5R)-3,4-bis{[tert-butyl(dimethyl)silyl]oxy}-5-(3-(4-methoxybenzyl)-2,4-dioxo-3,4-dihydro-1(2H)-pyrimidinyl)tetrahydro-2-furanyl](hydroxy)methyl]-3,10-dioxo-1-phenyl-2-oxa-4,11,15-triazaheptadecan-17-oate]",> 128,> 128,> 128,> 128,> 128,> 128,> 128,> 128,> 128,> 128,> 128,> 128,> 128,> 128,> 128,> 128,128,> 128,> 128,> 128,–
"COc1ccc(Cn2c(=O)ccn([C@@H]3OC([C@H](O)[C@H](NCCCNC(=O)[C@@H](N)CCC(=O)OC(C)(C)C)C(=O)OC(C)(C)C)[C@@H](O[Si](C)(C)C(C)(C)C)[C@H]3O[Si](C)(C)C(C)(C)C)c2=O)cc1 (stereo partly drawn) [Example 21, tert-Butyl (4S)-4-amino-5-[(3-{[(1S,2R)-2-[(3R,4R,5R)-3,4-bis{[tert-butyl(dimethyl)silyl]oxy}-5-(3-(4-methoxybenzyl)-2,4-dioxo-3,4-dihydro-1(2H)-pyrimidinyl)tetrahydro-2-furanyl]-1-(tert-butoxycarbonyl)-2-hydroxyethyl]amino}propyl)amino]-5-oxopentanoate]",–,–,–,–,–,–,–,–,–,–,–,–,–,–,–,–,–,–,–,–,"MIC (E. coli GC 4560; E. coli GC 4560, read-out: MIC): > 128 µg/mL; MIC (E. coli GC 4559; E. coli GC 4559, read-out: MIC): > 128 µg/mL; MIC (M. morganii GC 4531; [1]): > 128 µg/mL; MIC (E. cloacae GC 3783; [2]): > 128 µg/mL; MIC (P. aeruginosa GC 4532; [3]): > 128 µg/mL; MIC (P. aeruginosa GC 2214; [4]): > 128 µg/mL; MIC (S. marcescens GC 4077; [5]): > 128 µg/mL; MIC (K. pneumoniae GC 4534; [6]): > 128 µg/mL; MIC (E. coli GC 2203; E. coli GC 2203, read-out: MIC): > 128 µg/mL; MIC (S. aureus GC 1131; [7]): > 128 µg/mL; MIC (CNS GC 4537; CNS GC 4537, read-out: MIC): > 128 µg/mL; MIC (E. faecalis GC 842; [8]): > 128 µg/mL; MIC (S. aureus GC 4536; [9]): > 128 µg/mL; MIC (S. aureus GC 2216; [10]): > 128 µg/mL; MIC (CNS GC 4538; CNS GC 4538, read-out: MIC): > 128 µg/mL; MIC (CNS GC 4547; CNS GC 4547, read-out: MIC): > 128 µg/mL; MIC (E. faecalis GC 2242; [11]): > 128 µg/mL; MIC (E. faecalis GC 4555; [12]): > 128 µg/mL; MIC (C. albicans GC 3066; [13]): > 128 µg/mL; MIC (E. coli GC 3226; E. coli GC 3226, read-out: MIC): > 128 µg/mL"
"CCOC(=O)C(NCCCNC(=O)[C@@H](NC(=O)[C@H](CCCNC(=N)N)NC(=O)N[C@H](C(=O)O)C(C)C)[C@@H](O)C(C)C)[C@@H](O)[C@H]1O[C@@H](n2ccc(=O)[nH]c2=O)[C@H](OC(C)=O)[C@@H]1OC(C)=O (stereo partly drawn) [Example 43, (2S,6S,9S)-6-(3-{[Amino(imino)methyl]amino}propyl)-16-[(R)-[(2R,3R,4R,5R)-3,4-bis(acetyloxy)-5-(2,4-dioxo-3,4-dihydro-1(2H)-pyrimidinyl)tetrahydro-2-furanyl](hydroxy)methyl]-9-[(1S)-1-hydroxy-2-methylpropyl]-2-isopropyl-4,7,10,17-tetraoxo-18-oxa-3,5,8,11,15-pentaazaicosan-1-oic acid]",–,–,–,–,–,–,–,–,–,–,–,–,–,–,–,–,–,–,–,–,"MIC (E. coli GC 4560; E. coli GC 4560, read-out: MIC): > 128 µg/mL; MIC (E. coli GC 4559; E. coli GC 4559, read-out: MIC): > 128 µg/mL; MIC (M. morganii GC 4531; [1]): > 128 µg/mL; MIC (E. cloacae GC 3783; [2]): > 128 µg/mL; MIC (P. aeruginosa GC 4532; [3]): 128 µg/mL; MIC (P. aeruginosa GC 2214; [4]): 128 µg/mL; MIC (S. marcescens GC 4077; [5]): > 128 µg/mL; MIC (K. pneumoniae GC 4534; [6]): > 128 µg/mL; MIC (E. coli GC 2203; E. coli GC 2203, read-out: MIC): > 128 µg/mL; MIC (S. aureus GC 1131; [7]): > 128 µg/mL; MIC (CNS GC 4537; CNS GC 4537, read-out: MIC): > 128 µg/mL; MIC (E. faecalis GC 842; [8]): > 128 µg/mL; MIC (S. aureus GC 4536; [9]): > 128 µg/mL; MIC (S. aureus GC 2216; [10]): > 128 µg/mL; MIC (CNS GC 4538; CNS GC 4538, read-out: MIC): > 128 µg/mL; MIC (CNS GC 4547; CNS GC 4547, read-out: MIC): > 128 µg/mL; MIC (E. faecalis GC 2242; [11]): > 128 µg/mL; MIC (E. faecalis GC 4555; [12]): > 128 µg/mL; MIC (C. albicans GC 3066; [13]): 128 µg/mL; MIC (E. coli GC 3226; E. coli GC 3226, read-out: MIC): > 128 µg/mL"
"COc1ccc(Cn2c(=O)ccn([C@@H]3OC([C@H](O)[C@H](NCCCNC(=O)[C@@H](N)[C@H](C)O)C(=O)OC(C)(C)C)[C@@H](O[Si](C)(C)C(C)(C)C)[C@H]3O[Si](C)(C)C(C)(C)C)c2=O)cc1 (stereo partly drawn) [Example 11, tert-Butyl (2S,3R)-2-[(3-{[(2S,3S)-2-amino-3-hydroxybutanoyl]amino}propyl)amino]-3-[(3R,4R,5R)-3,4-bis{[tert-butyl(dimethyl)silyl]oxy}-5-(3-(4-methoxybenzyl)-2,4-dioxo-3,4-dihydro-1(2H)-pyrimidinyl)tetrahydro-2-furanyl]-3-hydroxypropanoate]",–,–,–,–,–,–,–,–,–,–,–,–,–,–,–,–,–,–,–,–,"MIC (E. coli GC 4560; E. coli GC 4560, read-out: MIC): > 128 µg/mL; MIC (E. coli GC 4559; E. coli GC 4559, read-out: MIC): > 128 µg/mL; MIC (M. morganii GC 4531; [1]): > 128 µg/mL; MIC (E. cloacae GC 3783; [2]): > 128 µg/mL; MIC (P. aeruginosa GC 4532; [3]): > 128 µg/mL; MIC (P. aeruginosa GC 2214; [4]): 128 µg/mL; MIC (S. marcescens GC 4077; [5]): > 128 µg/mL; MIC (K. pneumoniae GC 4534; [6]): > 128 µg/mL; MIC (E. coli GC 2203; E. coli GC 2203, read-out: MIC): > 128 µg/mL; MIC (S. aureus GC 1131; [7]): 8 µg/mL; MIC (CNS GC 4537; CNS GC 4537, read-out: MIC): 4 µg/mL; MIC (E. faecalis GC 842; [8]): 4 µg/mL; MIC (S. aureus GC 4536; [9]): 4 µg/mL; MIC (S. aureus GC 2216; [10]): 4 µg/mL; MIC (CNS GC 4538; CNS GC 4538, read-out: MIC): 4 µg/mL; MIC (CNS GC 4547; CNS GC 4547, read-out: MIC): 8 µg/mL; MIC (E. faecalis GC 2242; [11]): 8 µg/mL; MIC (E. faecalis GC 4555; [12]): 4 µg/mL; MIC (C. albicans GC 3066; [13]): > 128 µg/mL; MIC (E. coli GC 3226; E. coli GC 3226, read-out: MIC): > 128 µg/mL"
"COc1ccc(Cn2c(=O)ccn([C@@H]3OC([C@H](O)[C@H](NCCCNC(=O)[C@@H](NC(=O)OCc4ccccc4)[C@@H](O)C(C)C)C(=O)OC(C)(C)C)[C@@H](O[Si](C)(C)C(C)(C)C)[C@H]3O[Si](C)(C)C(C)(C)C)c2=O)cc1 (stereo partly drawn) [Example 1, tert-Butyl (5S,12S)-12-[(R)-[(3R,4R,5R)-3,4-bis{[tert-butyl(dimethyl)silyl]oxy}-5-(3-(4-methoxybenzyl)-2,4-dioxo-3,4-dihydro-1(2H)-pyrimidinyl)tetrahydro-2-furanyl](hydroxy)methyl]-5-[(1S)-1-hydroxy-2-methylpropyl]-3,6-dioxo-1-phenyl-2-oxa-4,7,11-triazatridecan-13-oate]",> 128,> 128,> 128,> 128,128,128,> 128,> 128,> 128,> 128,> 128,> 128,> 128,> 128,> 128,> 128,128,128,> 128,> 128,–
